Measured values taken from PubChem BioAssay AID192 (DTP/NCI, 2004).
Values joined by “and” are separate entries in the source; they are usually repeats but may differ in a detail not shown here. Equal entries are not always repeated. Inconclusive results and toxic doses are left out. Rule for the calls: active = survival T/C of 150% or more; inactive = T/C below 125% in these data.

System: BDF1 mice, B16 melanoma ip, median survival T/C
Test: NCI In Vivo Anticancer Drug Screen. Data for tumor model B16 Melanoma (intraperitoneal) in B6D2F1 (BDF1) mice
Details: endpoint: median survival time, higher = longer survival
Summary of the method: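 Read-out: survival or tumor size, given as treated/control ratio. Controls received vehicle only; animals bore transplantable tumors.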

[1] = dose: 25.0 mg/kg/injection, schedule: Q01DX009 (ip), vehicle: Klucel (hydroxypropylcellulose) (HPC)
[2] = dose: 50.0 mg/kg/injection, schedule: Q01DX009 (ip), vehicle: Klucel (hydroxypropylcellulose) (HPC)
[3] = dose: 100.0 mg/kg/injection, schedule: Q01DX009 (ip), vehicle: Klucel (hydroxypropylcellulose) (HPC)
[4] = dose: 100.0 mg/kg/injection, schedule: Q04DX003 (ip), vehicle: Klucel (hydroxypropylcellulose) (HPC)
[5] = dose: 200.0 mg/kg/injection, schedule: Q01DX009 (ip), vehicle: Klucel (hydroxypropylcellulose) (HPC)
[6] = dose: 200.0 mg/kg/injection, schedule: Q04DX003 (ip), vehicle: Klucel (hydroxypropylcellulose) (HPC)
[7] = dose: 50.0 mg/kg/injection, schedule: Q01DX009 (ip), vehicle: saline with Tween-80
[8] = dose: 100.0 mg/kg/injection, schedule: Q01DX009 (ip), vehicle: saline with Tween-80
[9] = dose: 200.0 mg/kg/injection, schedule: Q01DX009 (ip), vehicle: saline with Tween-80
[10] = dose: 50.0 mg/kg/injection, schedule: Q01DX009 (ip), vehicle: saline
[11] = dose: 200.0 mg/kg/injection, schedule: Q01DX009 (ip), vehicle: saline

Measured: T/C

COc1ccc(Nc2ccnc3cc(Cl)ccc23)cc1CN(CCCl)CCCl
inactive: dose: 1.25 mg/kg/injection, schedule: Q01DX009 (ip), vehicle: Klucel (hydroxypropylcellulose) (HPC) 118 % of control | dose: 2.5 mg/kg/injection, schedule: Q01DX009 (ip), vehicle: Klucel (hydroxypropylcellulose) (HPC) 94 % of control

ClCCN(CCCl)CCN1c2ccccc2Sc2ccccc21
inactive: dose: 1.56 mg/kg/injection, schedule: Q01DX009 (ip), vehicle: saline with Tween-80 105 % of control and 122 % of control | dose: 3.12 mg/kg/injection, schedule: Q04DX003 (ip), vehicle: Klucel (hydroxypropylcellulose) (HPC) 107 % of control | dose: 6.25 mg/kg/injection, schedule: Q01DX009 (ip), vehicle: saline with Tween-80 123 % of control | dose: 6.25 mg/kg/injection, schedule: Q04DX003 (ip), vehicle: Klucel (hydroxypropylcellulose) (HPC) 115 % of control

COc1ccc(C(C(N)=O)N2CCOCC2)cc1 (configuration not stated)
inactive: [1] 92 % of control | [2] 89 % of control | [3] 87 % of control | [4] 92 % of control | [5] 86 % of control | [6] 95 % of control | dose: 400.0 mg/kg/injection, schedule: Q04DX003 (ip), vehicle: Klucel (hydroxypropylcellulose) (HPC) 95 % of control

C[As](C)[Se]C1OC(CO)C(O)C(O)C1O (configuration not stated)
inactive: dose: 12.5 mg/kg/injection, schedule: Q01DX009 (ip), vehicle: Klucel (hydroxypropylcellulose) (HPC) 112 % of control | [1] 106 % of control | [2] 104 % of control

CC(=O)SCCCCl
inactive: [7] 108 % of control | [8] 112 % of control | [9] 97 % of control

Cc1cc(C)[nH]c(=S)n1
inactive: [10] 95 % of control | dose: 100.0 mg/kg/injection, schedule: Q01DX009 (ip), vehicle: saline 95 % of control | [11] 106 % of control

COc1ccc(NC(=O)Nc2ccc(Br)cc2)cc1
inactive: dose: 25.0 mg/kg/injection, schedule: Q01DX009 (ip), vehicle: saline with Tween-80 98 % of control | [7] 92 % of control | [8] 89 % of control and 95 % of control

O=C(O)CSC(CC(=O)O)C(=O)O (configuration not stated)
inactive: [11] 106 % of control | dose: 400.0 mg/kg/injection, schedule: Q01DX009 (ip), vehicle: saline 106 % of control

NC1c2cc(Cl)ccc2-c2c(Cl)cc(Cl)cc21 (configuration not stated)
inactive: [8] 109 % of control | [9] 111 % of control | dose: 400.0 mg/kg/injection, schedule: Q01DX009 (ip), vehicle: saline with Tween-80 102 % of control

COc1cc(O)c(Cc2ccccc2O)c(O)c1C(=O)CCc1ccccc1
inactive: dose: 1.25 mg/kg/injection, schedule: Q01DX009 (ip), vehicle: other 100 % of control | dose: 2.5 mg/kg/injection, schedule: Q01DX009 (ip), vehicle: other 100 % of control | dose: 5.0 mg/kg/injection, schedule: Q01DX009 (ip), vehicle: other 92 % of control | dose: 10.0 mg/kg/injection, schedule: Q01DX009 (ip), vehicle: other 100 % of control

CC(=O)CC(=O)Nc1ccc2ccccc2c1
inactive: [1] 93 % of control | [2] 90 % of control | [3] 93 % of control

COC(=O)C1(C(=O)OC)CCCCC1=O
inactive: [4] 93 % of control | [6] 94 % of control

Cc1cc(=O)[nH]c(N/N=C/c2ccccc2O)n1
inactive: [1] 93 % of control | [2] 87 % of control | [3] 87 % of control | [5] 87 % of control

CC(=O)Oc1c(C)c2c(O)c3c1C1=C(OCOC1=C(C)C3=O)C(C)=CC(C)(O)C(O)C(C)C(O)C1C(=O)OC(C(C)/C=C\C=C(C)C(=O)N2)C(C)C1O (configuration not stated)
inactive: [10] 97 % of control

O=C(O)C(Br)C(Br)c1ccccc1 (configuration not stated)
inactive: dose: 100.0 mg/kg/injection, schedule: Q04DX003 (ip), vehicle: saline with Tween-80 86 % of control | dose: 200.0 mg/kg/injection, schedule: Q04DX003 (ip), vehicle: saline with Tween-80 93 % of control | dose: 400.0 mg/kg/injection, schedule: Q04DX003 (ip), vehicle: saline with Tween-80 86 % of control
